From USRE49735E1 (BRISTOL-MYERS SQUIBB COMPANY, priority 2010, dated 2023) come the findings set out here.

SMILES strings stand for the structures. Where “and” joins values, the source holds several entries; their conditions need not be identical. Identical values can stand only once. Where only a bound is given, the exact number is not on record here.

human mGluR5A, sequence (P41594 21-1180 isoform P41594-2): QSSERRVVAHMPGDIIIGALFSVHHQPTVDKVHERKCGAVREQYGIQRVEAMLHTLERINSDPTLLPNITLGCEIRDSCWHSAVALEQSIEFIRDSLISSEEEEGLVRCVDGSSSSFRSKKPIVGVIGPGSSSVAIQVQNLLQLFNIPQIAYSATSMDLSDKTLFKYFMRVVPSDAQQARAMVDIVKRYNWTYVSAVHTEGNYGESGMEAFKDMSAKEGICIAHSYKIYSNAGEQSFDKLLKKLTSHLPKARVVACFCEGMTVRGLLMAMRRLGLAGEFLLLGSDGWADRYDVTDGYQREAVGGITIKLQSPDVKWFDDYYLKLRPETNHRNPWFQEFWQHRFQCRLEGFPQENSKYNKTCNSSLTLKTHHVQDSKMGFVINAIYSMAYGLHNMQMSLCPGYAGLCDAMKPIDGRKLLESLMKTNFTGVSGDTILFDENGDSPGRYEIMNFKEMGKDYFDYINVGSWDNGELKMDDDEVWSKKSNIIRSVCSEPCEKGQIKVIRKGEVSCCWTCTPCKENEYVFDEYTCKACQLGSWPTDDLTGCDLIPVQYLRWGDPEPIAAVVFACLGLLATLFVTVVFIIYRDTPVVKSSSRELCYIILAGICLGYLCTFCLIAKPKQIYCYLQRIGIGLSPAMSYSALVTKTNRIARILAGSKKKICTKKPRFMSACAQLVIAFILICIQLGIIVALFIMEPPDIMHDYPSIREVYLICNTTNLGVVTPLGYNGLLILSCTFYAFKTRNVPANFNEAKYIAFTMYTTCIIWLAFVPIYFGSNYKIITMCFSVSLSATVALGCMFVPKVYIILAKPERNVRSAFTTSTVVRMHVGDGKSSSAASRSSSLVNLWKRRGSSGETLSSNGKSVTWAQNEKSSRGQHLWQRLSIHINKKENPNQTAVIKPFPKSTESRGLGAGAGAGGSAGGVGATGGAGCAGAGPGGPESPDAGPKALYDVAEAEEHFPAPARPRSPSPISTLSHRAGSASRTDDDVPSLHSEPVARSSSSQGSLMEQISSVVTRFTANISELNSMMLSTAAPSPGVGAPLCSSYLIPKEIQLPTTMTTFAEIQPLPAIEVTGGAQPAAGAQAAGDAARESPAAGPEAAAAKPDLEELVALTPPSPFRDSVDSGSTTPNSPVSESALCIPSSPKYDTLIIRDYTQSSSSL

The assay addresses human mGluR5A (Homo sapiens, UniProt P41594). As to the kind of experiment: mGluR5 FLIPR Assay. Type of assay: cell-based. The following applies: positive modulator activity; HEK293 (ZF) cells with human mGluR5A and rat GLAST; Ca++ response to ~EC10 glutamate. How it is done:
HEK293 (ZF) cells stably transfected with human mGluR5A (pIRES neo) and the rat glutamate-aspartate transporter (GLAST; pIRES puro) are grown in a monolayer culture at 37° C. in 5% CO2 and fed with Minimum Essential Medium (MEM) supplemented with 10% dialysed fetal bovine serum. 24 hours prior to assay, cells are enzymatically dissociated from the culture flask (Trypsin, 0.25%), spun down (1000 rpm, 3 min), resuspended, and plated on Greiner black clear bottomed PDL-coated 384-well plates at a density of 30 thousand cells/well. […] Plates are incubated in dye at 37° C. in 5% CO2 for 60 minutes prior to delivery of test compounds in assay buffer. Test compounds are incubated with cells in the presence of dye for 10 minutes prior to being read on the FLIPR platform (Molecular Devices). A Ca^++ signal is induced in the assay plates via the delivery of an ˜EC10 concentration of the endogenous agonist 1-glutamate; images are acquired at 1 Hz for 100 seconds post-delivery of agonist stimulus. Positive modulator activity (i.e. the ability of test compounds to increase the Ca^++ response to a sub-maximal concentration of agonist) is normalized to a saturating concentration of a known mGluR5 PAM run in each assay plate. An EC50 concentration of test compounds is derived from 4-parameter logistic curve fits of transformed fluoresence data via proprietary software suite.
For the molecule `O=C1N[C@H](c2cccc(C#Cc3ccccc3)c2)C(c2cccs2)O1` (single isomer, unassigned) [Example 104], the EC50 is under 100 nM.

`O=C1N[C@@H](c2cccc(C#Cc3ccccc3)c2)[C@H](c2cccs2)O1` (single isomer, unassigned) [Example 105] returned an EC50 of over 30000 nM.

In the case of `O=C1N[C@H](c2cccc(C#Cc3ccccc3)c2)[C@@H](c2ccc(F)cc2)O1` (single isomer, unassigned) [Example 114], the EC50 was under 100 nM.

Regarding `O=C1N[C@H](c2cccc(C#Cc3ccccc3)n2)[C@@H](c2ccc(F)cc2)O1` (single isomer, unassigned) [Example 135], the EC50 was < 100 nM and 8.5 nM.

`O=C1N[C@@H](c2cccc(C#Cc3ccccc3)n2)[C@H](c2ccc(F)cc2)O1` (single isomer, unassigned) [Example 136] registered an EC50 of over 1000 nM.

In the case of `C[C@@]1(c2cncc(C#Cc3ccccc3)c2)NC(=O)O[C@H]1c1ccccc1` (single isomer, unassigned) [Example 137], the EC50 is 100 to 1000 nM.

Regarding `C[C@]1(c2cncc(C#Cc3ccccc3)c2)NC(=O)O[C@@H]1c1ccccc1` (single isomer, unassigned) [Example 138], the EC50 is < 100 nM and 0.43 nM.

In the case of `O=C1N[C@H](c2cc(C#Cc3ccccc3)ccn2)[C@@H](c2ccc(F)cc2)O1` (single isomer, unassigned) [Example 297], the EC50 is < 100 nM and 4.7 nM.

In the case of `O=C1N[C@@H](c2cc(C#Cc3ccccc3)ccn2)[C@H](c2ccc(F)cc2)O1` (single isomer, unassigned) [Example 298], the EC50 was 100 to 1000 nM and 232 nM.

As to `O=C1N[C@H](c2nc(C#Cc3ccccc3)ccc2F)[C@@H](c2ccccc2)O1` (single isomer, unassigned) [Example 305], the EC50 was over 1000 nM.

On to `O=C1N[C@@H](c2nc(C#Cc3ccccc3)ccc2F)[C@H](c2ccccc2)O1` (single isomer, unassigned) [Example 306], for which the EC50 was over 3000 nM.

The molecule `O=C1N[C@H](c2cccc(C#Cc3ccccc3)n2)[C@@H](c2ccccc2F)O1` (single isomer, unassigned) [Example 307] registered an EC50 of over 1000 nM.

Regarding `O=C1N[C@@H](c2cccc(C#Cc3ccccc3)n2)[C@H](c2ccccc2F)O1` (single isomer, unassigned) [Example 308], the EC50 was over 1000 nM.

On to `O=C1N[C@H](c2cccc(C#Cc3ccccc3)n2)[C@@H](c2ccc(F)cc2F)O1` (single isomer, unassigned) [Example 309], for which the EC50 is under 100 nM.

Molecule `O=C1N[C@@H](c2cccc(C#Cc3ccccc3)n2)[C@H](c2ccc(F)cc2F)O1` (single isomer, unassigned) [Example 310] showed an EC50 of over 1000 nM.

In turn, `O=C1N[C@H](c2cccc(C#Cc3cccc(F)c3)n2)[C@@H](c2ccc(F)cc2F)O1` (single isomer, unassigned) [Example 311] came in with an EC50 of under 100 nM.

`O=C1N[C@@H](c2cccc(C#Cc3cccc(F)c3)n2)[C@H](c2ccc(F)cc2F)O1` (single isomer, unassigned) [Example 312] registered an EC50 of over 3000 nM.

Turning to `O=C1N[C@H](c2cccc(C#Cc3ccccc3)n2)[C@@H](c2c(F)cc(F)cc2F)O1` (single isomer, unassigned) [Example 313], the EC50 lay in the range of 100 to 1000 nM.

`O=C1N[C@@H](c2cccc(C#Cc3ccccc3)n2)[C@H](c2c(F)cc(F)cc2F)O1` (single isomer, unassigned) [Example 314] showed an EC50 of over 1000 nM.

`O=C1N[C@H](c2cccc(C#Cc3ccccc3)n2)[C@@H](c2cc(F)cc(F)c2)O1` (single isomer, unassigned) [Example 315] came in with an EC50 of over 1000 nM.

Molecule `O=C1N[C@@H](c2cccc(C#Cc3ccccc3)n2)[C@H](c2cc(F)cc(F)c2)O1` (single isomer, unassigned) [Example 316] yielded an EC50 of over 1000 nM.

`O=C1N[C@@H](c2cncc(C#Cc3ccccc3)c2)[C@H](c2ccncn2)O1` (single isomer, unassigned) [Example 317] displayed an EC50 of over 1000 nM.

In turn, `O=C1N[C@H](c2cncc(C#Cc3ccccc3)c2)[C@@H](c2ccncn2)O1` (single isomer, unassigned) [Example 318] registered an EC50 of under 100 nM.

`O=C1N[C@@H](c2cncc(C#Cc3ccccc3)c2)[C@@H](c2ccncn2)O1` (single isomer, unassigned) [Example 319] showed an EC50 of over 1000 nM.

For `O=C1N[C@H](c2cncc(C#Cc3ccccc3)c2)[C@H](c2ccncn2)O1` (single isomer, unassigned) [Example 320], the EC50 was under 100 nM.

For `O=C1N[C@@H](c2cncc(C#Cc3ccccc3)c2)[C@H](c2ccnnc2)O1` (single isomer, unassigned) [Example 321], the EC50 is over 1000 nM.

The molecule `O=C1N[C@H](c2cncc(C#Cc3ccccc3)c2)[C@@H](c2ccnnc2)O1` (single isomer, unassigned) [Example 322] returned an EC50 of under 100 nM.

With `O=C1N[C@@H](c2cncc(C#Cc3ccccc3)c2)[C@@H](c2ccnnc2)O1` (single isomer, unassigned) [Example 323], the concentration giving a half-maximal response (EC50) was over 1000 nM.

For `O=C1N[C@H](c2cncc(C#Cc3ccccc3)c2)[C@H](c2ccnnc2)O1` (single isomer, unassigned) [Example 324], the EC50 was under 100 nM.

`O=C1N[C@@H](c2cncc(C#Cc3ccccc3)c2)[C@H](c2cc(Cl)ccc2Cl)O1` (single isomer, unassigned) [Example 325]: the EC50 was over 1500 nM.

Regarding `O=C1N[C@H](c2cncc(C#Cc3ccccc3)c2)[C@@H](c2cc(Cl)ccc2Cl)O1` (single isomer, unassigned) [Example 326], the EC50 is over 3000 nM.

Regarding `O=C1N[C@H](c2cncc(C#Cc3ccccc3)c2)[C@H](c2cc(Cl)ccc2Cl)O1` (single isomer, unassigned) [Example 327], the EC50 was over 1000 nM.

In the case of `O=C1N[C@@H](c2cncc(C#Cc3ccccc3)c2)[C@@H](c2cc(Cl)ccc2Cl)O1` (single isomer, unassigned) [Example 328], the EC50 is over 1000 nM.

Consider `O=C1N[C@@H](c2cncc(C#Cc3ccccc3)c2)[C@H](c2cccc(Cl)c2Cl)O1` (single isomer, unassigned) [Example 329], for which the EC50 was over 1000 nM.

In the case of `O=C1N[C@H](c2cncc(C#Cc3ccccc3)c2)[C@@H](c2cccc(Cl)c2Cl)O1` (single isomer, unassigned) [Example 330], the EC50 is under 100 nM.

Regarding `O=C1N[C@H](c2cncc(C#Cc3ccccc3)c2)[C@H](c2cccc(Cl)c2Cl)O1` (single isomer, unassigned) [Example 331], the EC50 is over 1000 nM.

Molecule `O=C1N[C@@H](c2cncc(C#Cc3ccccc3)c2)[C@@H](c2cccc(Cl)c2Cl)O1` (single isomer, unassigned) [Example 332] displayed an EC50 of over 1000 nM.

In turn, `COc1ccccc1[C@@H]1OC(=O)N[C@H]1c1cncc(C#Cc2ccccc2)c1` (single isomer, unassigned) [Example 333] showed an EC50 of over 1000 nM.

As to `COc1ccccc1[C@H]1OC(=O)N[C@@H]1c1cncc(C#Cc2ccccc2)c1` (single isomer, unassigned) [Example 334], the EC50 is over 3000 nM.

With `COc1ccccc1[C@@H]1OC(=O)N[C@@H]1c1cncc(C#Cc2ccccc2)c1` (single isomer, unassigned) [Example 335], the EC50 is over 1000 nM.

The molecule `COc1ccccc1[C@H]1OC(=O)N[C@H]1c1cncc(C#Cc2ccccc2)c1` (single isomer, unassigned) [Example 336] showed an EC50 of over 1000 nM.

For the molecule `C[C@@]1(c2cncc(C#Cc3ncccc3F)c2)NC(=O)O[C@H]1c1ccc(F)cc1` (single isomer, unassigned) [Example 343], the EC50 is over 1000 nM.

Take `C[C@@]1(c2cncc(C#Cc3ncccc3F)c2)NC(=O)O[C@H]1c1ccc(F)cc1` (single isomer, unassigned) [Example 344]: the EC50 was under 100 nM.

On to `O=C1N[C@@H](c2cncc(C#Cc3ccccc3)c2)[C@H](c2cccs2)O1` (single isomer, unassigned) [Example 345], for which the EC50 is over 1000 nM.

`O=C1N[C@H](c2cncc(C#Cc3ccccc3)c2)[C@@H](c2cccs2)O1` (single isomer, unassigned) [Example 346]: the EC50 was < 100 nM and 13.3 nM.

For `O=C1N[C@H](c2cc(C#Cc3cccc(Cl)c3)ccn2)[C@@H](c2ccc(F)cc2)O1` (single isomer, unassigned) [Example 347], the EC50 is over 1000 nM.

With `O=C1N[C@@H](c2cc(C#Cc3cccc(Cl)c3)ccn2)[C@H](c2ccc(F)cc2)O1` (single isomer, unassigned) [Example 348], the EC50 was over 1000 nM.

For the molecule `O=C1N[C@H](c2cc(C#Cc3ccc(Cl)cc3)ccn2)[C@@H](c2ccc(F)cc2)O1` (single isomer, unassigned) [Example 349], the EC50 is 100 to 1000 nM and 305 nM.

For the molecule `O=C1N[C@H](c2cc(C#Cc3ccccc3Cl)ccn2)[C@@H](c2ccc(F)cc2)O1` (single isomer, unassigned) [Example 351], the EC50 is 100 to 1000 nM.

As to `O=C1N[C@@H](c2cc(C#Cc3ccccc3Cl)ccn2)[C@H](c2ccc(F)cc2)O1` (single isomer, unassigned) [Example 352], the EC50 was over 1000 nM.

For the molecule `O=C1N[C@H](c2cc(C#Cc3ccccc3F)ccn2)[C@@H](c2ccc(F)cc2)O1` (single isomer, unassigned) [Example 353], the EC50 was under 100 nM.
